This is an account of results in PubChem BioAssay (NCI).

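The compound was tested at five concentrations on cells cultured in 96-well plates, with a 48-hour exposure period. Definition used: TGI = concentration required for complete inhibition of growth.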 A value given as a limit tells only on which side of the number the result lay.

Holding throughout (test): growth of human tumour cells (NCI), 48 h
The test system of test [1] is BT-549 breast.
The subject of test [2] is EKVX NSCLC.
Test [3] has as its system HOP-92 NSCLC.
Test [4] deals with MDA-MB-231 breast.
Test [5] has as its system MDA-N.
In test [6] the test system is MOLT-4 leukemia.
Test [7] relates to OVCAR-5 ovarian.
The test system of test [8] is OVCAR-8 ovarian.
The test system of test [9] is RXF 393 renal.
The test system of test [10] is SF-295 CNS.
Test [11] deals with SK-MEL-5 melanoma.
In test [12] the test system is SK-OV-3 ovarian.
For test [13], the system named is SW-620 colon.
For test [14], the system named is T-47D breast.
Test [15] has as its system UACC-62 melanoma.

Take `OC1OC(c2ccc[nH]2)C(F)(F)C(F)(F)C1(F)F` (stereo not given): the TGI in test [1], in [2], in [3], in [4], in test [5] and in [6] was above 100 µM each time. In addition, the TGI in [7], in test [8], in [9], in [10], in test [11] and in test [12] was above 100 µM in each case. Besides, the TGI in test [13], in test [14] and in test [15] was above 100 µM each time.
Consider `COc1ccc(-c2cc(=O)c3c(O)c(OC)c(O)cc3o2)cc1O`, for which the TGI was above 85.5 µM in test [1]; above 87.1 µM in test [2]; above 85.9 µM in test [3]; above 100 µM in [4]; above 100 µM in [5]; 20.7 µM in test [6]. For the same compound, the TGI in test [7] is above 100 µM; in test [8] it was above 100 µM; in test [9] it was above 64.8 µM; in [10] it was above 100 µM; in [11], 14.9 µM; in test [12], above 93.8 µM. The TGI in test [13] was above 100 µM; in test [14] it was above 100 µM; in [15], 31.4 µM.
Take `c1ccc2c(OCC3CO3)ccc(OCC3CO3)c2c1` (stereo not given): the TGI in test [1] came to 18.8 µM; in test [2] it was 32.7 µM; in test [3] it was 18.4 µM; in [4], 22.3 µM; in [5], 13 µM; in test [6] it was 2.99 µM. Further, the TGI turned out to be 23.3 µM in test [7]; 10.4 µM in test [8]; 7.71 µM in test [9]; 14.1 µM in test [10]; 19 µM in test [11]; 26.6 µM in [12]. In addition, the figures for the TGI in test [13], in test [14] and in test [15] were 4.03 µM, 15.4 µM and 12.2 µM, respectively.
Take `COc1ccc2cc(CNCCCN3CCN(CCCNCc4ccc5cc(OC)ccc5c4)CC3)ccc2c1`: the TGI amounted to 3.26 µM in [1]; 3.18 µM in test [2]; 2.82 µM in [3]; 3.42 µM in test [4]; 2.78 µM in [5]; 5.72 µM in test [6]. The TGI in [7] was 2.6 µM; in [8], 3.21 µM; in [9], 2.85 µM; in test [10] it was 3.34 µM; in test [11], 3.05 µM; in test [12], 2.72 µM. Moreover, the values for the TGI in test [13], in [14] and in [15] were 0.982 µM, 3.19 µM and 1.36 µM, respectively.
For the compound `C=C(CO)[C@H]1CC/C(C)=C/CC/C(C)=C/C/C=C(\C)[C@H](O)C1`, the TGI in test [1] is 44.2 µM; in test [2], above 100 µM; in [3], 39.5 µM; in [4], 56.6 µM; in [5], above 100 µM; in test [6] it was 44.2 µM. Also, the TGI in test [7] was above 100 µM; in test [8] it was 35.3 µM; in test [9] it was 42.1 µM; in [10], above 100 µM; in test [11] it was 54.1 µM; in test [12], above 100 µM. For the same compound, the TGI was 40.1 µM in [13], above 100 µM in test [14] and 58.4 µM in test [15].
Turning to `CC(C)CC(=O)OC[n+]1cccc(-c2c(COC(=O)NC(C)C)c(COC(=O)NC(C)C)c3n2CCC3)c1`, the TGI in [1] is above 100 µM; in [2] it was above 100 µM; in test [3], 76.9 µM; in test [4], above 100 µM; in test [5] it was above 100 µM; in test [6], above 100 µM. Also, the TGI in test [7], in test [8], in test [9], in test [10], in test [11] and in test [12] was above 100 µM each time. The TGI in [13], in test [14] and in test [15] was above 100 µM in each case.
`O=c1oc2ccccc2c(O)c1C(c1ccc2ccccc2c1)c1c(O)c2ccccc2oc1=O`: the TGI is 60.8 µM in [1]; above 100 µM in test [2]; above 100 µM in test [3]; 47.1 µM in test [4]; 68.9 µM in [5]; 55.1 µM in test [6]. The TGI in [7] is 62 µM; in test [8], 31.6 µM; in test [9], above 100 µM; in [10], above 100 µM; in test [11] it was 54.4 µM; in test [12] it was above 100 µM. In addition, the TGI in test [13] was 87.7 µM; in [14] it was above 100 µM; in test [15], above 100 µM.
With `NC(=O)CC1(O)C=CC(=O)C=C1`, the TGI in test [1], in test [2], in test [3], in [4], in test [5] and in test [6] was above 100 µM in each case. Moreover, the TGI in test [7], in test [8], in test [9], in test [10], in test [11] and in test [12] was above 100 µM in each case. Besides, the TGI in test [13], in test [14] and in [15] was above 100 µM throughout.
Regarding `Cc1ccc(-c2cnc(NC3OC(COC(=O)c4ccccc4)C(OC(=O)c4ccccc4)C(OC(=O)c4ccccc4)C3OC(=O)c3ccccc3)s2)cc1` (stereo not given), the TGI in test [1], in test [2], in test [3], in [4], in test [5] and in test [6] was above 100 µM each time. Further, the TGI in test [7], in [8], in [9], in test [10], in [11] and in [12] was above 100 µM in each case. For the same compound, the TGI in test [13], in test [14] and in test [15] was above 100 µM throughout.
For `O=c1[nH]c2nccn2c(Cl)c1Br`, the TGI in test [1] stood at 47.2 µM; in [2], 40.3 µM; in [3], 78.7 µM; in test [4] it was 37.4 µM; in test [5], 45.8 µM; in [6] it was 42.6 µM. The TGI in [7] was 49.1 µM; in [8], 39.3 µM; in test [9] it was 20.8 µM; in test [10], above 100 µM; in test [11], 64.9 µM; in test [12], 86.9 µM. Also, the TGI stood at 60.1 µM in test [13], 67.8 µM in test [14] and 43.3 µM in test [15].
Regarding `COC(=O)C1=C(C(=O)OC)C(C(=O)c2ccccc2)N2N=C(c3ccc(Cl)cc3)C=CC12` (stereo not given), the TGI was 8.55 µM in test [1]; above 100 µM in test [2]; above 100 µM in test [3]; above 100 µM in test [4]; above 100 µM in [5]; above 100 µM in [6]. For the same compound, the TGI in test [7], in test [8], in test [9], in [10], in test [11] and in test [12] was above 100 µM in each case. Besides, the TGI in test [13], in [14] and in test [15] was above 100 µM each time.
Take `CC(=O)NNc1nc(C)c(C(/C=C/c2ccccc2O)=N/NC(=O)c2ccncc2)s1`: the TGI in test [1], in [2], in [3], in test [4], in [5] and in [6] was above 100 µM throughout. For the same compound, the TGI in [7], in test [8], in test [9], in test [10], in test [11] and in test [12] was above 100 µM throughout. Also, the TGI in test [13], in test [14] and in test [15] was above 100 µM in each case.
With `C#CCOC(=O)C(N)CS` (stereo not given), the TGI in test [1], in test [2], in test [3], in test [4], in [5] and in test [6] was above 100 µM in each case. Moreover, the TGI in [7], in test [8], in test [9], in [10], in [11] and in [12] was above 100 µM in each case. Also, the TGI in [13], in test [14] and in [15] was above 100 µM throughout.
For `CC1=CC[C@@]2(C)[C@@H]([C@@H]1C)[C@H]1CC[C@@H]3[C@@]4(C)CC[C@H](O)C(C)(C)[C@@H]4CC[C@@]3(C)[C@]1(C)C[C@@H]2O`, the TGI is above 64.3 µM in test [1]; 23.6 µM in test [2]; 53 µM in [3]; 20.2 µM in test [4]; above 55.4 µM in test [5]; above 70.4 µM in [6]. The TGI is above 78.2 µM in test [7]; 28.7 µM in [8]; 28.5 µM in test [9]; 43.4 µM in test [10]; above 62 µM in test [11]; above 64.7 µM in test [12]. The TGI is 98.6 µM in test [13], above 74.9 µM in test [14] and above 68.8 µM in [15].
